In publication PMC6470589, “Contribution of Molecular Structure to Self-Assembling and Biological Properties of Bifunctional Lipid-Like 4-(N-Alkylpyridinium)-1,4-Dihydropyridines” (Pharmaceutics, 2019):
Where “and” joins values, the source holds several entries; their conditions need not be identical. Identical values can stand only once. Entries after “also recorded” stand apart in the source; their conditions may differ.

Assays:
[1] = Self-assembling properties by dynamic light scattering (DLS); format: physicochemical; details: for PDI ± SD, 1 Set: freshly prepared samples; for Zeta-Pot ± SD: freshly prepared samples in water, 0.5 mg/mL (1–7), 0.25 mg/mL (8–10), 0.1 mg/mL (11); for PDI ± SD, 2 Set: two weeks after the first set, samples stored at r.t.; for Stability of nanoparticles: two weeks of storage at r.t., DLS
Method: Samples of compounds for dynamic light scattering (DLS) studies were prepared by thin-film hydration method in an aqueous solution at a concentration of 0.5 mg/mL for compounds 1–7, 0.25 mg/mL for compounds 8–10, and 0.1 mg/mL for compound 11. A corresponding amount of compounds was weighted in a round-bottom flask and dissolved in chloroform; then, the organic solvent was removed in vacuo, and the residue was dried in high vacuo for 1 h. An appropriate amount of deionised water was added to each flask for the preparation of stock solutions with the above-mentioned concentrations. Samples were prepared by sonication using a bath-type sonicator (Cole Parmer Ultrasonic Cleaner 8891CPX (Vernon Hills, IL, USA)). Samples were sonicated for 60 min at 50 °C.
The DLS measurements of the nanoparticles in an aqueous solution were carried out on a Zetasizer Nano ZSP (Malvern Panalytical Ltd., Malvern, UK) instrument with Malvern Instruments Ltd. Software 7.12, using the following specifications—medium: water; refractive index: 1.33; viscosity: 0.8872 cP; temperature: 25 °C; dielectric constant: 78.5; nanoparticles: liposomes; refractive index of materials: 1.60; detection angle: 173°; wavelength: 633 nm. Data were analysed using the multimodal number distribution software that was included with the instrument. The measurements were performed in triplicate in order to check their reproducibility.

[2] = system: MH-22A (mouse hepatocarcinoma) cells; test: MTT cytotoxicity assay on MH-22A tumor cells, 72 h; format: cell-based; details: MTT, 72 h; ne = no effect in the tested concentration (up to 100 μg/mL)
Method: (§1) Tumor cell lines HT-1080 (human connective tissue fibrosarcoma) and MH-22A (mouse hepatocarcinoma) were used. All of the cells were obtained from the American Type Culture Collection ((ATCC,) Rockville, MD, USA). HT-1080 and MH-22A cells (4 × 10^4 cell/mL) were seeded in 96-well plates in Dulbecco’s modified Eagle’s medium (DMEM) containing 10% fetal bovine serum and cultivated for 72 h at 37 °C, 5% CO2 by exposure to different compounds concentrations (100 μg/mL, 25 μg/mL, 6.25 μg/mL, and 1.56 μg/mL). Cell viability was measured using 3-(4,5-dimethylthiazol-2-yl)-2,5-diphenyl-tetrazolium bromide (MTT) assay. In brief, after incubating with compounds, the culture medium was removed and fresh medium with 0.2 mg/mL MTT was added in each well of the plate. After incubation (3 h, 37 °C, 5% CO2), the medium with MTT was removed, and 200 μL of DMSO was added at once to each sample. The samples were tested at 540 nm on a Tecan multiplate reader Infinite1000 (Tecan Austria GmbH, Salzburg, Austria). The IC50 was calculated using the program Graph Pad Prism® 3.0.

[3] = system: HT-1080 (human connective tissue fibrosarcoma) cells; test: MTT cytotoxicity assay on HT-1080 tumor cells, 72 h; format: cell-based; details: MTT, 72 h; ne = no effect in the tested concentration (up to 100 μg/mL)
Method: as §1

[4] = system: NIH 3T3 (Mouse Swiss Albino embryo fibroblast) cells; test: Basal cytotoxicity test (neutral red uptake) with estimation of LD50 from IC50; format: cell-based; details: category by estimated LD50 (mg/kg)
Method: The neutral red uptake (NRU) assay was performed according to the standard protocol of Stokes modified by NICEATM-ECVAM validation study. The NRU cytotoxicity assay procedure was based on the ability of viable cells to incorporate and bind neutral red, which is a supravital dye.
NIH 3T3 (Mouse Swiss Albino embryo fibroblast) cells (9000 cells/well) were placed into 96-well plates for 24 h in DMEM medium containing 5% fetal bovine serum (FBS). Then, they were exposed to the test compound over a range of seven concentrations (1000 μg/mL, 316 μg/mL, 100 μg/mL, 31 μg/mL, 10 μg/mL, 3.0 μg/mL, and 1.0 μg/mL) for 24 h. Untreated cells were used as a control. After 24 h, the medium was removed from all plates. Then, 250 μL of neutral red (NR) solution was added (0.05 mg/mL NR in DMEM 24 h pre-incubated at 37 °C and then filtered before use through a 0.22-µm syringe filter). Plates were incubated for 3 h, and then, cells were washed three times with phosphate buffered saline (PBS). The dye within viable cells was released by extraction with a mixture of acetic acid, ethanol, and water (1:50:49). The absorbance of neutral red was measured using a spectrophotometer multiplate reader Infinite M1000 (Tecan Austria GmbH, Salzburg, Austria) at 540 nm. The optical density (OD) was calculated using the formula: OD (treated cells) × 100/OD (control cells). The IC50 values were calculated using the program Graph Pad Prism® 3.0.
Data from the in vitro tests were used for estimating the starting dose for acute oral systemic toxicity tests in rodent. The in vivo starting dose is an estimated LD50 value that is calculated by inserting the in vitro IC50 value into a regression formula: log LD50 (mM/kg) = 0.439 log IC50 (mM) + 0.621 [29]. The value is recalculated to mg/kg, and compounds are evaluated in accordance with four toxicity categories: category 1: LD50 ≤ 5 mg/kg (highly toxic); category 2: 5 < LD50 ≤ 50 mg/kg (moderately toxic); category 3: 50 < LD50 ≤ 300 mg/kg (slightly toxic); category 4: 300 < LD50 ≤ 2000 mg/kg (practically non-toxic). Using an alternative in vitro method enables comparing the possible toxicity of new compounds and selecting compounds for further study, which will vastly reduce the number of animal experiments.

[5] = MTT cytotoxicity assay on MH-22A tumor cells, 72 h; format: cell-based, mouse; details: mouse, MH-22A hepatocarcinoma cells, MTT, 72 h; ne = no effect in the tested concentration (up to 100 μg/mL); read-out: Cytotoxicity IC50, MH-22A
Method: as §1

[6] = MTT cytotoxicity assay on HT-1080 tumor cells, 72 h; format: cell-based, human; details: human, HT-1080 fibrosarcoma cells, MTT, 72 h; ne = no effect in the tested concentration (up to 100 μg/mL); read-out: Cytotoxicity IC50, HT-1080
Method: as §1

[7] = Determination of critical aggregation concentration (CAC) by DLS; format: physicochemical; details: aqueous media
Method: The critical aggregation concentrations (CAC) of 4-(N-alkylpyridinium)-1,4-DHP derivatives were determined in aqueous media using a Zetasizer Nano S90 (Malvern Panalytical Ltd., Malvern, UK) instrument with Malvern Instruments Ltd. Software according to procedure described by Topel et al. and modified by our group. Briefly, as stock solutions of tested compounds were used, samples were prepared for self-assembling experiments. All of the subsequent samples were prepared starting from the concentrated stock solution, which was subjected to a serial two-fold dilution each time with water. The intensity values of scattered light (kcps) as a function of concentration of amphiphiles were analysed. The scattering intensities detected for amphiphile concentrations below CAC have an approximately constant value corresponding to water. The intensity starts to show a linear increase with concentration at the CAC, since the amount of nanoparticles increases in the solution. The intersection of the best-fit lines drawn through the data points is the preliminary CAC value of the compounds.

Klebsiella pneumoniae = test: Toxicity screen, serial dilution-spot test; format: cell-based; details: gram negative; 24 h exposure in DI water, 28 °C; 0.0001 = no colonies at 0.001 mM;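 also: last dilution that did not fully inhibit growth with colonies still present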
Method: (§2) An estimation of the toxicity of 4-(N-alkylpyridinium)-1,4-DHP derivatives 3, 6, 7, and 9–11 was performed using six prokaryotic (bacteria) and one eukaryotic (yeast) microorganism species according to the procedure elaborated by Suppi et al.. The microorganisms used in the study and their origin were: Bacillus subtilis subsp. spizizenii (ATCC® 6633™*, Microbiologics®, St Cloud, MN, USA), Escherichia coli (ATCC® 8739, Microbiologics®), Klebsiella pneumoniae (Latvian Microorganisms strain collection, LMKK, strain number 535, Riga, Latvia), Micrococcus luteus (LMKK, No. 25), Pseudomonas aeruginosa (NCTC 12924, Biosciences Ltd., Dublin, Ireland), Proteus mirabilis (LMKK, No 590), and Saccharomyces cerevisiae, CEN.PK2 strain [32].
(§3) Bacteria and yeast cultures were cultivated until their exponential growth phase (optical density max 1); then, 100 µL of cell suspension was taken, washed in deionised (DI) water, and added to serially diluted samples of corresponding 4-(N-alkylpyridinium)-1,4-DHPs in DI water. All 1,4-DHPs were tested in five serially diluted concentrations (10 mM, 1 mM, 0.1 mM, 0.01 mM, and 0.001 mM). Test organisms were exposed to 1,4-DHP derivatives in DI water on 96-well microplates (Corning, Corning, NY, USA) at 28 °C for 24 h without shaking in the dark. Then, a 5 µL sample was taken from each well and spotted on yeast extract, bactopeptone, dextrose broth (YPD) (yeast extract 1%, bactopeptone 2%, glucose 2% and agar 2%) plates to test the growth of yeasts and lysogeny broth (LB) (yeast extract 0.5%, bactopeptone 1%, NaCl 0.5% and agar 2%) to test the growth for bacteria. Plates were left in 30 °C for 24 h, and assessed for microbial growth.
(§4) If there were no colonies after incubation with 1,4-DHPs in the last concentration of (0.001 mM), then their boundary concentration was set to 0.0001 mM or 0.1 µM.

[8] = system: Bacillus subtilis subsp. spizizenii; test: Toxicity screen, serial dilution-spot test; format: cell-based; details: gram positive; 24 h exposure in DI water, 28 °C; 0.0001 = no colonies at 0.001 mM;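 also: last dilution that did not fully inhibit growth with colonies still present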
Method: as §2, §3, §4

Escherichia coli = test: Toxicity screen, serial dilution-spot test; format: cell-based; details: gram negative; 24 h exposure in DI water, 28 °C; 0.0001 = no colonies at 0.001 mM;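 also: last dilution that did not fully inhibit growth with colonies still present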
Method: as §2, §3, §4

Pseudomonas aeruginosa = test: Toxicity screen, serial dilution-spot test; format: cell-based; details: gram negative; 24 h exposure in DI water, 28 °C; 0.0001 = no colonies at 0.001 mM;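 also: last dilution that did not fully inhibit growth with colonies still present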
Method: as §2, §3, §4

[9] = system: Saccharomyces cerevisiae, CEN.PK2 strain; test: Toxicity screen, serial dilution-spot test; format: cell-based; details: yeast; 24 h exposure in DI water, 28 °C; 0.0001 = no colonies at 0.001 mM;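 also: last dilution that did not fully inhibit growth with colonies still present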
Method: as §2, §3, §4

Proteus mirabilis = test: Toxicity screen, serial dilution-spot test; format: cell-based; details: gram negative; 24 h exposure in DI water, 28 °C; 0.0001 = no colonies at 0.001 mM;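 also: last dilution that did not fully inhibit growth with colonies still present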
Method: as §2, §3, §4

Micrococcus luteus = test: Toxicity screen, serial dilution-spot test; format: cell-based; details: gram positive; 24 h exposure in DI water, 28 °C; 0.0001 = no colonies at 0.001 mM;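 also: last dilution that did not fully inhibit growth with colonies still present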
Method: as §2, §3, §4

[10] = system: six prokaryotic (bacteria) and one eukaryotic (yeast) microorganism species; test: Toxicity screen, whole panel of microorganisms; format: cell-based; details: concentrations tested 10 to 0.001 mM
Method: as §2, §3, §4

| Structure (SMILES) | PDI ± SD, 1 Set [1] | Zeta-Pot ± SD [1] | PDI ± SD, 2 Set [1] | Stability of nanoparticles [1] | Cytotoxicity IC50, MH-22A [2] | Cytotoxicity IC50, HT-1080 [3] | Toxicity category from estimated LD50 [4] | IC50 at 72 h [5] | IC50 at 72 h [6] | CAC [7] | Boundary concentration, K. pneumoniae (Klebsiella pneumoniae) | Boundary concentration, B. subtilis [8] | Boundary concentration, E. coli (Escherichia coli) | Boundary concentration, P. aeruginosa (Pseudomonas aeruginosa) | Boundary concentration, S. cerevisiae [9] | Boundary concentration, P. mirabilis (Proteus mirabilis) | Boundary concentration, M. luteus (Micrococcus luteus) | Effect on survival of microorganisms [10] |
| --- | --- | --- | --- | --- | --- | --- | --- | --- | --- | --- | --- | --- | --- | --- | --- | --- | --- | --- |
| CCOC(=O)C1=C(C)NC(C)=C(C(=O)OCC)C1c1ccc[n+](CC)c1 [Compound 1] | 0.18 and 0.18 ± 0.01 | −8.43 ± 2.14 mV | 0.40 and 0.40 ± 0.16 | lost their homogeneity after two weeks of storage; also recorded: weak stability | did not demonstrate any cytotoxic effect and ne | did not demonstrate any cytotoxic effect and ne | – | – | – | – | – | – | – | – | – | – | – | – |
| CCCCCC[n+]1cccc(C2C(C(=O)OCC)=C(C)NC(C)=C2C(=O)OCC)c1 [Compound 2] | 0.50 and 0.50 ± 0.10 | −11.39 ± 1.85 mV | 0.91 ± 0.10 | weak stability | – | – | non-toxic | 67 ± 4 µM | 26 ± 2 µM | – | – | – | – | – | – | – | – | – |
| C#CCN1C(C)=C(C(=O)OCC)C(c2ccc[n+](CC)c2)C(C(=O)OCC)=C1C [Compound 4] | 0.16 and 0.16 ± 0.02 | −5.47 ± 1.97 mV | 0.41 and 0.41 ± 0.07 | lost their homogeneity after two weeks of storage; also recorded: weak stability | did not demonstrate any cytotoxic effect and ne | did not demonstrate any cytotoxic effect and ne | – | – | – | – | – | – | – | – | – | – | – | – |
| C#CCN1C(C)=C(C(=O)OCC)C(c2ccc[n+](CCCCCC)c2)C(C(=O)OCC)=C1C [Compound 5] | 0.72 and 0.72 ± 0.32 | −9.96 ± 0.72 mV | 0.59 ± 0.01 | weak stability | – | – | non-toxic | 16 ± 1 µM | 5 ± 0.3 µM | – | – | – | – | – | – | – | – | – |
| C#CCOC(=O)C1=C(C)NC(C)=C(C(=O)OCC#C)C1c1ccc[n+](CCCCCC)c1 [Compound 8] | 0.60 and 0.60 ± 0.06 | – | 0.45 ± 0.05 | – | – | – | non-toxic | 80 ± 5 µM | 76 ± 8 µM | – | – | – | – | – | – | – | – | – |
| C#CCN1C(C)=C(C(=O)OCC)C(c2ccc[n+](CCCCCCCCCCCCCCCC)c2)C(C(=O)OCC)=C1C [Compound 11] | 0.37 and 0.37 ± 0.03 | – | 0.33 and 0.33 ± 0.03 | stable after two weeks of storage; also recorded: confirmed the stability of nanoparticles | – | – | – | – | – | 7.6 µM | 10 mM | 0.0001 mM | 0.01 mM | 0.01 mM | 0.0001 mM | 0.0001 mM | 0.001 mM | toxic at various degrees |
